Experimental findings from US6034108A, “Method for treating mental retardation” (Eli Lilly and Company, priority 1998, dated 2000) are described below.

Molecules are shown by their SMILES.

The target of experiment [1] is T1, m2 receptors in brain stem (Rattus norvegicus, UniProt P10980).
T1 sequence (P10980 1-466): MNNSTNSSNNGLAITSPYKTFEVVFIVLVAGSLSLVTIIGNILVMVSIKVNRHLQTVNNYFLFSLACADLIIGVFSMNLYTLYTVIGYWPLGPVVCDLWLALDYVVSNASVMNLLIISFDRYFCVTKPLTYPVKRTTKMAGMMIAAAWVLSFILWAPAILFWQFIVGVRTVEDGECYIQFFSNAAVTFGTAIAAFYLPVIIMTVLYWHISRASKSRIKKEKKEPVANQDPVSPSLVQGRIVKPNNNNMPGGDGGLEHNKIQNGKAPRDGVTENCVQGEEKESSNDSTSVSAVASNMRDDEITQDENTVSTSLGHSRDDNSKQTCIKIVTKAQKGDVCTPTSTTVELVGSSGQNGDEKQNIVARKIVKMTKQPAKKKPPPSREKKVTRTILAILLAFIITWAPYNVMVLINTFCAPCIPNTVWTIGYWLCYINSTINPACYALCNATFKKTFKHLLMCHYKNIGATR
As to the kind of experiment: 3H-guinuclidinyl benzilate binding to m2 receptors in brain stem.

The subject of a further experiment is m4 receptors. As to the kind of experiment: cAMP formation in CHO m4 cells treated with pertussis toxin. The format is cell-based. The source says: Muscarinic agonists stimulate the formation of cAMP up to 10 fold in CHO m4 cells treated with pertussisi toxin and the pharmacology is consistent with the mediation by m4 receptors. Eckols K. Soc. Neurosci Abstr., 21:2040 (1995).

As a reminder, the Ki is the dissociation constant of the complex between target and ligand, obtained from inhibition or displacement. Higher therefore signals weaker binding.

In experiment [1], `CCCCCCOc1nsnc1C1=CCCN(C)C1` [Xanomeline, 3-(4-hexyloxy-1,2,5-thiadiazol-3-yl)-1,2,5,6-tetrahydro-1-methylpyridine] returned an inhibition constant (Ki) of 24 nM. Further, the “stimulation of the formation of cAMP” value with m4 receptors is “efficaciously and potently stimulated the formation of cAMP”.
